Here are results for twelve molecules from patent EP0903346A1, “SYDNONE IMINE DERIVATIVES” (Chugai Seiyaku Kabushiki Kaisha, priority 1995, dated 1997).

SMILES strings stand for the structures. Where two headings read alike, the source gives them in different places.

As a reminder, the IC50 is the concentration needed to halve the response being measured.

Assay [1] deals with isolated rat aorta. Nature of the assay: Test with the use of isolated rat aorta (relaxation of potassium chloride contraction). The following applies: read-out: Rat aorta IC50. On the procedure:
The thoracic aorta was taken out from male Sprague Dawley rats weighing 450 to 600 g and cut into circular samples of 2 mm in width. […] The contraction reactions of the samples were isometrically recorded with FD pick-up. After 1 to 1.5 hours of equilibration, 30 mM potassium chloride was added to contract the tissue. […] As the test compounds, the invention compounds obtained in the above Examples were employed.

The subject of assay [2] is anesthetized rat. Nature of the assay: Blood pressure-lowering effect in anesthetized rat. Type of assay: in vivo. The settings on record: duodenal administration; for Blood pressure-lowering effect ED30: dose causing a decrease in the blood pressure by 30%; for Blood pressure-lowering effect Half duration: half duration at ED30 (recovery to 50% of the maximum decrease in blood pressure). The method, then: Male Sprague Dawley rats weighing 280 to 450 g were anesthetized with sodium pentobarbital (50 mg/kg, i.p.) and fixed in the supine position. A canula was inserted into the trachea of each animal. Then the blood pressure of the animal was measured (AP-621G, Nippon Kohden Corp.) through a polyethylene tube (PE50) inserted into the right femoral artery via a pressure transducer (Life Kit DTS, DX-300, Nippon Kohden Corp.) and the heart rate was determined from the pulse wave (AT-610G, Nippon Kohden Corp.). A canula (PE10) for injecting the maintenance anesthetic drug (sodium pentobarbital 20 mg/kg/h) was inserted into the right femoral vein. The abdominal region was medianly sectioned and a canula (PE50 connected to a injection needle 23G) for duodenal drug administration was inserted thereinto and fixed with Aronalpha for surgical use. After 60-90 minutes of recovery period, the drug was administered into duodenum. After administering the drug, the blood pressure was measured until the average blood pressure returned to the level before the administration.
As the indication of the blood pressure-lowering effect of each drug, the dose causing a decrease in the blood pressure by 30%, based on the level before the administration, was calculated from the dose-response curve and employed as the 30% effective dose (ED30). Moreover, the time required for the recovery to the level corresponding to 50% of the maximum decrease in the blood pressure (half duration) was measured at each dose. Then the half duration at the above-mentioned ED30 was calculated and employed as the indication of the lasting time of the blood pressure-lowering effect (half duration at ED30).
As the test compounds, use was made of the compounds of the present invention obtained in the above Examples. Table C summarizes the results. Table C

The subject of assay [3] is rat ischemia-reperfusion model. Description: Myocardial necrosis inhibitory effect in rat ischemia-reperfusion model. Type of assay: in vivo. The arrangement: LDH / CK: unit not given here. The following applies: mean ± standard error; for NA/RA: necrosis area/risk area; for CK: serum creatine kinase activity after reflow; for LDH: serum lactate dehydrogenase activity after reflow. On the procedure:
Male Sprague Dawley rats weighing 270 to 410 g were anesthetized with sodium pentobarbital (50 mg/kg, i.p.) and fixed in the supine position. A canula was inserted into the trachea of each animal. Then the blood pressure of the animal was measured (AP-621G, Nippon Kohden Corp.) through a polyethylene tube (PE50, Becton Dickinson) inserted into the right femoral artery via a pressure transducer (Life Kit DTS, DX-300, Nippon Kohden Corp.) and the heart rate was determined from the pulse wave (AT-610G, Nippon Kohden Corp.). Two canulae (PE10 and PE50, Becton Dickinson) for injecting the maintenance anesthetic drug (sodium pentobarbital 20 mg/kg/h) and a coloring matter respectively were inserted into the right jugular vein. The left jugular vein was exposed for blood collection. The chest was opened by vertically sectioning the chest region from the third to fifth left ribs about 10 mm apart from the median line under artificial respiration with room air (Harvard respirator, model 683, rate : 60 strokes/min. tidal volume : 10 ml/kg body weight). Then the operative field was enlarged with a wound retractor and the heart sac was peeled off to thereby expose the heart. By using a curved round needle with thread for vascular tract (8mm, 6-0 black blaid silk, Matsuda Medical Industry), a thread of 4 to 5 mm in length was put in the left ventricle in the depth of 2 mm for ligating the coronary artery. After the completion of the operation, the animal was allowed to stand as such for 20 minutes or longer. After confirming that the blood pressure and the heart rate had been stabilized, the experiment was initiated.
In this experiment, use was made of eight groups of rats including: 1) a physiological saline (i.e., the solvent for SIN-1) group; 2) an SIN-1 (3 µg/kg/min) group; 3) another SIN-1 (10 µg/kg/min) group; 4) 1% DMSO-containing physiological saline (adjusted to pH 5 with hydrochloric acid, i.e., the solvent for the compounds of Examples 1 and 2) group; 5) a group of the compound of Example 1 (10 µg/kg/min); 6) another group of the compound of Example 1 (30 µg/kg/min); 7) a group of the compound of Example 2 (3 µg/kg/min); and 8) another group of the compound of Example 2 (10 µg/kg/min). Each drug was intravenously administered continuously for 75 minutes (from 15 minutes before the ligation of the coronary artery to the completion of the reflow) at a rate of 0.95 ml/h. Fifteen minutes after the initiation of the drug administration, the coronary artery was ligated and maintained for 30 minutes. The coronary artery was ligated by the snare method with the use of a polyethylene tube (PE160, Becton Dickinson) and a vascular clamp (C-17 grooved, Natsume). After 30-minutes reflow, the risk area (RA) and the necrosis area (NA) were measured.
The risk area and the necrosis area formed by ligating the coronary artery were measured by the double staining method with Evans blue and triphenyltetrazolium chloride (TTC) in the following manner. To clarify the risk area, the coronary artery was ligated again after the completion of the reflow. Subsequently, 1 ml of 5% Evans blue (Sigma) and a 1 M solution of KCl were successively injected into the jugular vein until the heart arrest. Thus, the non-risk area was stained dark blue. After the heart arrest, the heart was quickly taken out and washed with physiological saline. Then the left ventricle was separated and cut into circular slices of 3 mm in width with a trimming blade (Feather). To decide the necrosis area, these slices were incubated in a 0.1 M phosphate buffer (81 mM Na2HPO4: 19 mM NaH2PO4, pH 7.4) containing 1% TTC at 37°C for 5 minutes. Thus, living cells were exclusively stained red with TTC while the necrosis area was not stained. After staining with TTC, each wet slice was weighed, fixed with 20% formalin and then photographed while allowing to stand in physiological saline. […]

Assay [4] concerns platelet rich plasma (PRP). Nature of the assay: Inhibitory effect on platelet aggregation in rabbit. The format is cell-based. The following applies: Oryctolagus cuniculus, aggregation agent arachidonic acid, pre-incubated for 3 minutes, invention compound n = 1 - 3, aspirin n = 7, read-out: Rabbit antiplatelet aggregation effect IC50. The method, then: Male JW/CSK rabbits weighing 2.6 to 3.1 kg were anesthetized with thiopental (20 mg/kg). Then the blood of each animal was collected from the left carotid artery into a container containing a 3.8% solution of citric acid (9 : 1 v/v). The collected blood was immediately centrifuged at room temperature at 1,300 rpm (230 G) for 10 minutes to give a platelet rich plasma (PRP). Further, a required amount of the blood was centrifuged at 3,000 rpm (1,300 G) for 15 minutes to give a platelet poor plasma (PPP). The PRP to be used in the platelet aggregation test was diluted with PPP to adjust the platelet count to 3 x 10^8. The aggregability was measured by using a platelet aggregation measuring device (TE-500, ERMA) with the use of arachidonic acid ([…]) as an aggregation agent. Each test compound was mixed with PRP and pre-incubated for 3 minutes. Next, the aggregation agent was added thereto and the aggregability was measured for 5 minutes. Thus, the activity of the test compound was evaluated by determining the 50% inhibitory concentration (IC50; µM) thereof to the maximum aggregation induced by the arachidonic acid. As the test compounds, the compounds of the present invention obtained in the above Examples were employed. As a control drug, use was made of aspirin which has been widely known as a platelet aggregation inhinitor. Table E summarizes the results. Table E

The subject of assay [5] is rat A-V shunt model. Nature of the assay: Effect on blood coagulability in rat A-V shunt model. The format is in vivo. The following applies: 10 mg/kg p.o.; from 75 minutes to 2 hours after administration; mean ± S.E. (n = 6). The method, then:
Rat A-V shunts models were prepared by reference to the method of Umezu et al. (Thrombos Haemostas. 1978:39:74 - 83). Male SD rats were anesthetized with sodium pentobarbital (50 mg/kg, i.p.) and fixed in the supine position. A thick polyethylene tube (6 cm; Hibiki No. 7, Kunii Co.) containing a silk suture thread was connected at both ends to another thin polyethylene tube (10 cm, Hibiki No. 4, Kunii Co.) and then inserted into the left common carotid artery and the right internal jugular vein of the rat so as to form an external blood circulation system (A-V Shunt). The blood was circulated within the shunt system for 15 minutes and then the blood coagulates adhering to the silk suture thread in the thick tube was weighed. After repeating this operation thrice, the total weight was determined and the activity of each test compound was evaluated based thereon.
In this experiment, the anti-aggregation effects achieved from 75 minutes to 2 hours after the peroral administration were examined in a vehicle group (0.3% carboxymethyl cellulose, hereinafter referred to simply as CMC; n = 6), a group of the compound of Example 2 (10 mg/kg; n = 6) and a group of FK-409 (10 mg/kg; n = 6) which had been reported as being capable of inhibiting the formation of blood coagulates (European Journal of Pharmacology, 1995:272:39 - 43). Table F summarizes the results. Table F […]

Setting [6] is: 10 µg/kg/min intravenously for 75 minutes.
Setting [7] is: 30 µg/kg/min intravenously for 75 minutes.
The mark [8] stands for this setting: 3 µg/kg/min intravenously for 75 minutes.

Take `CN1CCN([n+]2cc([N-]C(=O)CSc3cc(C(C)(C)C)c(O)c(C(C)(C)C)c3)on2)CC1` [Example 1, N-((3,5-Di-t-butyl-4-hydroxyphenylthio)acetyl)-3-(4-methylpiperazin-1-yl)sydnonimine]: the IC50 in assay [1] is 0.65 µM. In assay [2], the “Blood pressure-lowering effect ED30” value was 5.5 mg/kg and the “Blood pressure-lowering effect Half duration” value was 151 min. In assay [3] (setting [6]), this molecule gave an NA/RA of 33.4±6.1%, a CK of 3237±803 and an LDH of 1538±254. Besides, in assay [3] (setting [7]), the NA/RA turned out to be 22.3±6.1 p<0.01 vs. 4%, the CK is 2772±496 and the LDH was 1339±343.

As for `C[C@H](CSC(=O)c1ccccc1)C(=O)[N-]c1c[n+](N2CCN(C)CC2)no1` [Example 2, N-((S)-3-(Benzoylthio)isobutyryl)-3-(4-methylpiperazin-1-yl)sydnonimine], in assay [4], the half-maximal inhibitory concentration (IC50) stood at 15.8 µM.

With `CN1CCN([n+]2cc([N-]C(=O)CSC(=O)c3ccccc3)on2)CC1` [Example 3, N-((Benzoylthio)acetyl)-3-(4-methylpiperazin-1-yl)sydnonimine], in assay [4], the concentration for half-maximal inhibition (IC50) stood at 2.7 µM.

With `CCN1CCN([n+]2cc([N-]C(=O)[C@H](C)CSC(=O)c3ccccc3)on2)CC1` [Example 68, N-((S)-3-(Benzoylthio)isobutyryl)-3-(4-ethylpiperazin-1-yl)sydnonimine], the half-inhibitory concentration (IC50) in assay [4] was determined as 10.5 µM.

As to `CC(=O)SCC(=O)[N-]c1c[n+](N2CCN(C(C)C)CC2)no1` [Example 86, N-(Acetylthioacetyl)-3-(4-isopropylpiperazin-1-yl)sydnonimine], in assay [4], the IC50 was found to be 1.3 µM.

For the molecule `CC(C)N1CCN([n+]2cc([N-]C(=O)CSC(=O)c3ccccc3)on2)CC1` [Example 88, N-(Benzoylthioacetyl)-3-(4-isopropylpiperazin-1-yl)sydnonimine], in assay [4], the concentration for half-maximal inhibition (IC50) came to 1.1 µM.

`CN1CCN([n+]2cc([N-]C(=O)CCSC(=O)c3ccc(F)cc3)on2)CC1` [Example 135, N-(3-(4-Fluorobenzoylthio)propionyl)-3-(4-methylpiperazin-1-yl)sydnonimine]: the IC50 in assay [4] was determined as 12.9 µM.

Take `COc1ccc(C(=O)SCCC(=O)[N-]c2c[n+](N3CCN(C)CC3)no2)cc1` [Example 139, N-(3-(4-Methoxybenzoylthio)propionyl)-3-(4-methylpiperazin-1-yl)sydnonimine]: the half-maximal inhibitory concentration (IC50) in assay [4] amounted to 15.8 µM.

As for `CCN1CCN([n+]2cc([N-]C(=O)CSC(=O)C3(C)CCc4c(C)c(O)c(C)c(C)c4O3)on2)CC1` (stereo not shown) [Example 192, N-((6-Hydroxy-2,5,7,8-tetramethylchroman-2-carbonylthio)acetyl)-3-(4-ethylpiperazin-1-yl)sydnonimine], the IC50 in assay [4] turned out to be 3.9 µM.

`CC/C(=C\C(=N/O)C(N)=O)C(C)[N+](=O)[O-]` (stereo not shown) [FK409]: in assay [5], the “Blood coagulability in rat A-V shunt model p.o. administration; wt. (mg) of coagulates” value amounted to 89.17 ± 8.43 mg.

For the molecule `Cl.N=c1c[n+](N2CCOCC2)[n-]o1` [SIN-1, 3-morpholinosydnonimine hydrochloride, reference compound], the IC50 in assay [1] (relaxation of continuous contraction due to 30 mM potassium chloride, thoracic aorta of male Sprague Dawley rats) stood at 0.85 µM. In assay [2], the “Blood pressure-lowering effect ED30” value was 1.0 mg/kg and the “Blood pressure-lowering effect Half duration” value amounted to 75 min. In assay [3] (setting [8]), this molecule showed an NA/RA of 18.5±4.3%, a CK of 3138±207 and an LDH of 1082±60. In assay [3] (setting [6]), this molecule displayed an NA/RA of 19.3±5.2%, a CK of 2853±507 and an LDH of 1196±166.

On to `CC(=O)Oc1ccccc1C(=O)O` [aspirin, reference compound], for which the IC50 in assay [4] came out at 27.5 µM.
